Data from US10023593B2, “ALK kinase inhibitor, and preparation method and uses thereof” (BEIJING PEARL BIOTECHNOLOGY LIMITED LIABILITY COMPANY, priority 2014, dated 2018).
pIC50: −log10 of the molar value.

Tests used:
Karpas-299 cell line = assay: CellTiter-Glo cell proliferation inhibition on Karpas-299 cell line; assay type: cell-based; settings: Homo sapiens, 96 h, Karpas-299 cells, 5000 cells/well, 4 days drug treatment
Experimental: 4. Cell Proliferation Inhibitory Activities of the Compounds of the Present Invention on Karpas-299 Cell Line
? experimental method ? CellTiter-Glo® Luminescent Cell Viability Assay kit from Promega company was used to detect cell proliferation inhibitory activities of the compounds on Karpas-299 cell line.
? instrument ? Envision 2104 plate reader from PerKinElmer company; Vi-Cell XR cell counter from Beckman Counter company; MCO-18AIC CO2 incubator from SANYO company.
? experiment material ? CellTiter-Glo® Luminescent Cell Viability Assay Kit (Promega company, catalog No. G7573); Karpas-299 cell line (DSMZ, catalog No. ACC31); RPMI-1640 medium (HyClone company, catalog No. SH30809.01B); fetal bovine serum (FBS) (Gibco company, catalog No. 10099-141); PBS (HyClone company, catalog No. SH30256.01B); 96 wells cell culture plate (Corning company, catalog No. 3610); DMSO (AMRESCO company, catalog No. 0231); 96 wells plates (for diluting compounds) (CITOTEST company, catalog No. Ref36020096D);
? experimental condition ? Karpas-299 cells in exponential growth phase were collected and viable cells were counted by Vi-Cell XR cell counter. Cell suspension was adjusted to 62500 cells/ml with culture medium (RPMI-1640+10% FBS). 80 μl cell suspension was added into each well of 96 wells cell culture plate so that so that the final cell number of Karpas-299 cells was 5000 cells/well. The cells were cultivated in an incubator with an atmosphere of 37° C., 5% CO2 and 95% humidity for 2 hours and then each well was added with 20 μl compounds in RPMI-1640 medium solution (the final concentration of DMSO was 0.5%). 4 days after drug treatment, each well was added with 50 μl CellTiter-Glo solution which was previously thawed and equilibrated to room temperature, and mixed for 2 minutes with microplate shaker. After placing at room temperature for 10 minutes, luminescence reading value was measured with PerkinElmer Envision 2104 plate reader and the data was analyzed.
? tested samples ? Compounds of the examples.
Luminescence value of DMSO solvent control (Vvehicle control, which is the mean luminescence value from DMSO solvent control group)
Tested luminescence value (Vsample, which is the luminescence value from given concentration of compounds group) Inhibition rate (%)=(1−Vsample/Vvehicle control)×100
? data processing ? IC50 of compounds was calculated by using XLfit program in Excel.

Wild Type ALK kinase = target: T1, Wild Type ALK kinase (Homo sapiens, UniProt Q9UM73); assay: HTRF KinEASE-TK assay, inhibitory activity on wild type ALK kinase; assay type: biochemical; settings: wild type ALK 1 ng/μl, substrate 1 μM, 30° C. 35 minutes, read-out: Inhibition on ALK kinases (wildtype), IC50
T1 construct: purchased Sino-US Crown Bioscience, Inc. batch number ALK 20110607
T1 sequence (Q9UM73 19-1620): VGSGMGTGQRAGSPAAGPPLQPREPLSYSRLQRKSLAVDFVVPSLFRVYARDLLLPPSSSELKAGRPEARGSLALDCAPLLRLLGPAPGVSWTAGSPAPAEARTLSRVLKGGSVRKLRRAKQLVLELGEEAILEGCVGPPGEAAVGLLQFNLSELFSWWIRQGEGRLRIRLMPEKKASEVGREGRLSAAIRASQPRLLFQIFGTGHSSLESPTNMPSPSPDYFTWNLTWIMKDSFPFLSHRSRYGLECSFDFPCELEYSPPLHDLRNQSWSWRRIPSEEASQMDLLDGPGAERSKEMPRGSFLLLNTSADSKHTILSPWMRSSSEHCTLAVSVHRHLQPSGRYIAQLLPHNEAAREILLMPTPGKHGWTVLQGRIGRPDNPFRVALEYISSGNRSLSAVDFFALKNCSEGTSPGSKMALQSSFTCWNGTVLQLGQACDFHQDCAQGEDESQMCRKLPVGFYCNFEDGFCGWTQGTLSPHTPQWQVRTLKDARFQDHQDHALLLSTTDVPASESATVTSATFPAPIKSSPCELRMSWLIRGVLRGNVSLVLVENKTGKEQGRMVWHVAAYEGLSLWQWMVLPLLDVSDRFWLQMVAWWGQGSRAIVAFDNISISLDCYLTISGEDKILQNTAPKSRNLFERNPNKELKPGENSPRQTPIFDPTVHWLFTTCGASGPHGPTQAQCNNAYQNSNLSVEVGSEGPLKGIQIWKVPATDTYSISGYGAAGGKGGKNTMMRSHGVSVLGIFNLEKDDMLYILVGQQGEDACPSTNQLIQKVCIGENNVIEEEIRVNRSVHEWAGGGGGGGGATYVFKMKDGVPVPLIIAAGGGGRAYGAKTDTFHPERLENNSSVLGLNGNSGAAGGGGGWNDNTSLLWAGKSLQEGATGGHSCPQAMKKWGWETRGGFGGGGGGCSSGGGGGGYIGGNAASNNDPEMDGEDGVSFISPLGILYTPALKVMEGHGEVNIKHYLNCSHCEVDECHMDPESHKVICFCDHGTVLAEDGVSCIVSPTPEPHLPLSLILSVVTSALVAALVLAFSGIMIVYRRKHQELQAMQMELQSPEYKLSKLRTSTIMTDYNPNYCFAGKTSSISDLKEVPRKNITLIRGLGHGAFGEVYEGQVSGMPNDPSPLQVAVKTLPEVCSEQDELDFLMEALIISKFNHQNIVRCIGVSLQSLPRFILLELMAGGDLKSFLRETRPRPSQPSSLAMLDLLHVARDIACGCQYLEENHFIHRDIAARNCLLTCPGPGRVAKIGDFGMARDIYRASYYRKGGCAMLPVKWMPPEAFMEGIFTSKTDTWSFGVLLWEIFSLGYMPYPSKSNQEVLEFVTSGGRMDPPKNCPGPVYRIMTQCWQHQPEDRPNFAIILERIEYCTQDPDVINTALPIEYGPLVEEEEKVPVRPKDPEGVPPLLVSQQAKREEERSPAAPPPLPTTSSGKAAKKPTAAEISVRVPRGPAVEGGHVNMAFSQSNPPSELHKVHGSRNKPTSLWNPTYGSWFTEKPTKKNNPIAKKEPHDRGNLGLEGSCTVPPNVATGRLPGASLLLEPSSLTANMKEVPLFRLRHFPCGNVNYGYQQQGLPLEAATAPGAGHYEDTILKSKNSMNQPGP
Procedure, shortened: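 ALK kinase at 1 ng/μl and substrate at 1 μM were reacted with compound (1% DMSO) in buffer with 5 mM MgCl2 and 1 mM DTT for 35 min at 30 °C. HTRF detection used the 665/615 ratio, normalised to no-compound wells and to 10.4 μM LDK-378 wells. IC50 came from a concentration-response fit.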

SMILES | pIC50 (Karpas-299 cell line) | pIC50 (Wild Type ALK kinase)
CC(C)S(=O)(=O)c1nn(C2CC2)cc1Nc1nc(Nc2ccc(C3CCN(C)CC3)cc2OC(F)(F)F)ncc1Cl [Final product 38] | 7.66 | 7.96
CC(C)S(=O)(=O)c1nn(C)cc1Nc1nc(Nc2cc(C#N)c(C3CCN(C)CC3)cc2OC2CC2)ncc1Cl [Final product 49] | 7.00 | 8.10
CC(C)S(=O)(=O)c1nn(C2CC2)cc1Nc1nc(Nc2ccc(C3CCN(S(C)(=O)=O)CC3)cc2OC2CC2)ncc1Cl [Final product 173] | 7.72 | 7.43
Cc1cc(Nc2ncc(Cl)c(Nc3cn(C)nc3S(=O)(=O)C(C)C)n2)c(OC(C)C)cc1C1CNC1 [Final product 4] | 7.22 | 8.40
CC(C)S(=O)(=O)c1nn(C)cc1Nc1nc(Nc2cc(F)c(C3CCN(C)C3)cc2OC2CC2)ncc1Cl (stereo not drawn) [Final product 45] | 7.72 | 8.40
Cc1cc(Nc2ncc(Cl)c(Nc3cn(C)nc3S(=O)(=O)C(C)C)n2)c(OC2CC2)cc1C1CCN(C(=O)C(F)(F)F)CC1 [Final product 161, 1-trifluoroacetyl-4-(4-(5-chloro-4-(3-(isopropylsulfonyl)-1-methyl-1H-pyrazol-4-amino)pyrimidin-2-amine)-5-cyclopropoxy-2-methylphenyl)piperidine] | 7.57 | 7.49
Cc1cc(Nc2ncc(Cl)c(Nc3cn(C)nc3S(=O)(=O)CC(C)C)n2)c(OC(C)C)cc1C1CCNCC1 [Final product 6] | 7.62 | 8.52
Cc1cc(Nc2ncc(Cl)c(Nc3cn(C)nc3S(=O)(=O)CC(C)C)n2)c(OC2CC2)cc1C1CN(S(C)(=O)=O)C1 [Final product 171] | 7.16 | 7.07
CC(C)S(=O)(=O)c1nn(C)cc1Nc1nc(Nc2ccc(C3=CCNCC3)cc2OC2CC2)ncc1Cl [Final product 14] | 7.72 | 8.40
CC(C)S(=O)(=O)c1nn(C2CC2)cc1Nc1nc(Nc2cc(Cl)c(C3CCN(C)CC3)cc2OC2CC2)ncc1Cl [Final product 48] | 7.39 | 8.70
Cc1cc(Nc2ncc(Cl)c(Nc3cn(C)nc3S(=O)(=O)C(C)C)n2)c(C(F)(F)F)cc1C1CCN(C)CC1 [Final product 32] | 7.13 | 7.66
CC(C)S(=O)(=O)c1nn(C)cc1Nc1nc(Nc2cc(F)c(C3CCNC3)cc2OC2CC2)ncc1Cl (stereo not drawn) [Final product 20] | 7.25 | 8.05
Cc1cc(Nc2ncc(Cl)c(Nc3cn(C)nc3S(=O)(=O)C(C)C)n2)c(OC2CC2)cc1C1=C(Cl)CN(C)CC1 [Final product 208, 5-chloro-N^2-[4-(5-chloro-1-methyl-1,2,3,6-tetrahydro-pyridin-4-yl)-2-cyclopropoxy-5-methyl-phenyl]-N^4-[1-methyl-3-(isopropylsulfonyl)-1H-pyrazol-4-yl]-pyrimidin-2,4-diamine] | 7.46 | 8.22
CC(C)S(=O)(=O)c1nn(C)cc1Nc1nc(Nc2ccc(C3CCN(C)CC3)cc2OC(F)(F)F)ncc1Cl [Final product 30] | 7.60 | 8.15
Cc1cc(Nc2ncc(Cl)c(Nc3cn(C)nc3S(=O)(=O)C(C)C)n2)c(OC2CC2)cc1C1CCN(CCN(C)C)CC1 [Final product 146, 5-chloro-N^2-(2-cyclopropoxy-4-(1-(2-(dimethylamino)ethyl)piperidin-4-yl)-5-methylphenyl)-N^4-(3-(isopropylsulfonyl)-1-methyl-1H-pyrazol-4-yl)-pyrimidin-2,4-diamine] | 7.82 | 8.70
CC(C)S(=O)(=O)c1nn(C)cc1Nc1nc(Nc2ccc(C3CCN(S(C)(=O)=O)C3)cc2OC2CC2)ncc1Cl (stereo not drawn) [Final product 172] | 7.77 | 8.10
CCN(CC)[C@H]1CC[C@H](c2cc(OC3CC3)c(Nc3ncc(Cl)c(Nc4cn(C)nc4S(=O)(=O)CC(C)C)n3)cc2C)CC1 [Final product 178] | 7.74 | 7.74
CC(C)S(=O)(=O)c1nn(C)cc1Nc1nc(Nc2cc(C#N)c(C3CCNCC3)cc2OC2CC2)ncc1Cl [Final product 29] | 7.46 | 8.40
Cc1cc(Nc2ncc(Cl)c(Nc3cn(C)nc3S(=O)(=O)C(C)C)n2)c(OC2CC2)cc1C1CN(S(C)(=O)=O)C1 [Final product 170] | 7.07 | 7.40
Cc1cc(Nc2ncc(Cl)c(Nc3cn(C)nc3S(=O)(=O)C(C)C)n2)c(OC(C)C)cc1C1CN(S(C)(=O)=O)C1 [Final product 168] | 7.17 | 7.85
Cc1cc(Nc2ncc(Cl)c(Nc3cn(C)nc3S(=O)(=O)C(C)C)n2)c(C(F)(F)F)cc1C1CCNCC1 [Final product 11] | 7.21 | 7.66

Further lines, results first:

pIC50 (Karpas-299 cell line) | pIC50 (Wild Type ALK kinase) | SMILES
7.82 | 7.25 | Cc1cc(Nc2ncc(Cl)c(Nc3cn(C)nc3S(=O)(=O)C(C)C)n2)c(OC2CC2)cc1C1CCN(C(=O)C(C)(C)C)CC1 [Final product 164, 1-pivaloyl-4-(4-(5-chloro-4-(3-(isopropylsulfonyl)-1-methyl-1H-pyrazol-4-amino)pyrimidin-2-amine)-5-cyclopropoxy-2-methylphenyl)piperidine]
7.92 | 8.40 | Cc1cc(Nc2ncc(Cl)c(Nc3cn(C)nc3S(=O)(=O)CC(C)C)n2)c(OC2CC2)cc1C1CCN(CCO)CC1 [Final product 137]
7.85 | 8.70 | CC(C)S(=O)(=O)c1nn(C)cc1Nc1nc(Nc2cc(Cl)c(C3CCNCC3)cc2OC2CC2)ncc1Cl [Final product 22]
7.96 | 8.15 | Cc1cc(Nc2ncc(Cl)c(Nc3cn(C)nc3S(=O)(=O)C(C)C)n2)c(OC(C)C)cc1C1CCN(C)C1 (stereo not drawn) [Final product 37]
8.15 | 8.40 | Cc1cc(Nc2ncc(Cl)c(Nc3cn(C)nc3S(=O)(=O)C(C)C)n2)c(OC(C)C)cc1C1CCN(C(C)(C)CO)CC1 [Final product 152]
8.05 | 8.05 | Cc1cc(Nc2ncc(Cl)c(Nc3cn(C)nc3S(=O)(=O)C(C)C)n2)c(OC2CC2)cc1[C@H]1CC[C@H](NC2CC2)CC1 [Final product 196]
8.05 | 8.30 | CCN1CCC(c2cc(OC(C)C)c(Nc3ncc(Cl)c(Nc4cn(C)nc4S(=O)(=O)C(C)C)n3)cc2C)CC1 [Final product 118]
8.15 | 8.52 | CC(C)S(=O)(=O)c1nn(C)cc1Nc1nc(Nc2ccc(C3CCN(C)CC3)cc2OC2CC2)ncc1Cl [Final product 40]
8.15 | 8.52 | CC(C)S(=O)(=O)c1nn(C)cc1Nc1nc(Nc2ccc(C3CCNCC3)cc2OC2CC2)ncc1Cl [Final product 13]
7.92 | 8.70 | Cc1cc(Nc2ncc(Cl)c(Nc3cn(C)nc3S(=O)(=O)C(C)C)n2)c(OC2CC2)cc1C1=CCNCC1 [Final product 25]
8.52 | 8.70 | Cc1cc(Nc2ncc(Cl)c(Nc3cn(C)nc3S(=O)(=O)C(C)C)n2)c(OC2CC2)cc1C1CCN(C(=O)CN(C)C)CC1 [Final product 165, 1-(2-dimethylamino)acetyl-4-(4-(5-chloro-4-(3-(isopropylsulfonyl)-1-methyl-1H-pyrazol-4-amino)pyrimidin-2-amino)-5-cyclopropoxy-2-methylphenyl)piperidine]
7.89 | 8.15 | Cc1cc(Nc2ncc(Cl)c(Nc3cn(C)nc3S(=O)(=O)C(C)C)n2)c(OC2CC2)cc1C1CCN(C2CC2)CC1 [Final product 157]
7.96 | 8.05 | Cc1cc(Nc2ncc(Cl)c(Nc3cn(C)nc3S(=O)(=O)C(C)C)n2)c(OC2CC2)cc1C1CCN(C=O)CC1 [Final product 159, 4-(4-(5-chloro-4-(3-(isopropylsulfonyl)-1-methyl-1H-pyrazol-4-amino)pyrimidin-2-amino)-5-cyclopropoxy-2-methylphenyl)piperidin-1-formaldehyde]
8.40 | 8.70 | Cc1cc(Nc2ncc(Cl)c(Nc3cn(C)nc3S(=O)(=O)C(C)C)n2)c(OC2CC2)cc1C1CC(C)N(C)C(C)C1 (stereo not drawn) [Final product 95]
8.05 | 8.70 | Cc1cc(Nc2ncc(Cl)c(Nc3cn(C)nc3S(=O)(=O)C(C)C)n2)c(OC2CC2)cc1C1CCNCC1 [Final product 24]
